Measured values: the NIST ThermoML archive (doi:10.1021/je9003178)
Numbers after ± are expanded uncertainties.

Assay: activity coefficient (dimensionless); of the first substance listed, at infinite dilution; xn = mol fraction of the nth substance listed
Conditions: Liquid, Chromatography, x1 = 0

| Structure (SMILES) | activity coefficient (322.65 K) | activity coefficient (332.85 K) | activity coefficient (343.15 K) | activity coefficient (343.85 K) | activity coefficient (352.65 K) |
| --- | --- | --- | --- | --- | --- |
| c1ccccc1 [benzene] + CCn1cc[n+](C)c1.N#CN=C=[N-] | 2.57 ± 0.12 | 2.56 ± 0.12 | 2.56 ± 0.12 |  |  |
| CCCCO [butan-1-ol] + CCCCCC[N+](C)(C)C.O=S(=O)([N-]S(=O)(=O)C(F)(F)F)C(F)(F)F | 2.25 ± 0.1 |  |  | 1.83 ± 0.079 | 1.74 ± 0.073 |
| CCCCO [butan-1-ol] + CCn1cc[n+](C)c1.N#CN=C=[N-] | 1.59 ± 0.06 | 1.47 ± 0.06 | 1.4 ± 0.05 |  |  |
| CCCC=O [butanal] + CCCCCC[N+](C)(C)C.O=S(=O)([N-]S(=O)(=O)C(F)(F)F)C(F)(F)F | 0.657 ± 0.03 |  |  | 0.661 ± 0.03 | 0.677 ± 0.03 |
| CCCC=O [butanal] + CCn1cc[n+](C)c1.N#CN=C=[N-] | 2.23 ± 0.1 | 2.22 ± 0.1 | 2.21 ± 0.1 |  |  |
| CCC(C)=O [butanone] + CCCCCC[N+](C)(C)C.O=S(=O)([N-]S(=O)(=O)C(F)(F)F)C(F)(F)F | 0.422 ± 0.034 |  |  | 0.365 ± 0.035 | 0.354 ± 0.035 |
| CCC(C)=O [butanone] + CCn1cc[n+](C)c1.N#CN=C=[N-] | 1.59 ± 0.06 | 1.46 ± 0.06 | 1.33 ± 0.05 |  |  |
| C1CCCCCC1 [cycloheptane] + CCCCCC[N+](C)(C)C.O=S(=O)([N-]S(=O)(=O)C(F)(F)F)C(F)(F)F | 14.3 ± 0.66 |  |  | 33.3 ± 1.5 | 43.4 ± 2 |
| C1CCCCCC1 [cycloheptane] + CCn1cc[n+](C)c1.N#CN=C=[N-] | 128 ± 6 | 169 ± 8 | 221 ± 10 |  |  |
| C1CCCCC1 [cyclohexane] + CCCCCC[N+](C)(C)C.O=S(=O)([N-]S(=O)(=O)C(F)(F)F)C(F)(F)F | 6.6 ± 0.3 |  |  | 5.9 ± 0.27 | 5.74 ± 0.26 |
| C1CCCCC1 [cyclohexane] + CCn1cc[n+](C)c1.N#CN=C=[N-] | 46 ± 2.1 | 42.1 ± 2 | 38.7 ± 1.8 |  |  |
| CCCCCCCCCC [decane] + CCCCCC[N+](C)(C)C.O=S(=O)([N-]S(=O)(=O)C(F)(F)F)C(F)(F)F | 36.8 ± 1.7 |  |  | 31 ± 1.4 | 29.6 ± 1.4 |
| CCCCCCCCCC [decane] + CCn1cc[n+](C)c1.N#CN=C=[N-] | 699 ± 33 | 627 ± 30 | 565 ± 27 |  |  |
| ClCCl [dichloromethane] + CCCCCC[N+](C)(C)C.O=S(=O)([N-]S(=O)(=O)C(F)(F)F)C(F)(F)F | 0.678 ± 0.03 |  |  | 0.728 ± 0.029 | 0.759 ± 0.029 |
| ClCCl [dichloromethane] + CCn1cc[n+](C)c1.N#CN=C=[N-] | 0.67 ± 0.03 | 0.73 ± 0.03 | 0.78 ± 0.03 |  |  |
| CCOCC [diethyl ether] + CCCCCC[N+](C)(C)C.O=S(=O)([N-]S(=O)(=O)C(F)(F)F)C(F)(F)F | 1.52 ± 0.059 |  |  | 1.91 ± 0.084 | 1.94 ± 0.086 |
| CCOCC [diethyl ether] + CCn1cc[n+](C)c1.N#CN=C=[N-] | 9.88 ± 0.45 | 9.71 ± 0.45 | 9.56 ± 0.44 |  |  |
| CC(C)OC(C)C [diisopropyl ether] + CCCCCC[N+](C)(C)C.O=S(=O)([N-]S(=O)(=O)C(F)(F)F)C(F)(F)F | 3.2 ± 0.15 |  |  | 4.03 ± 0.18 | 4.12 ± 0.19 |
| CC(C)OC(C)C [diisopropyl ether] + CCn1cc[n+](C)c1.N#CN=C=[N-] | 32.1 ± 1.5 | 32.3 ± 1.5 | 32.4 ± 1.5 |  |  |
| CCCCCCCCCCCC [dodecane] + CCCCCC[N+](C)(C)C.O=S(=O)([N-]S(=O)(=O)C(F)(F)F)C(F)(F)F | 68.1 ± 3.2 |  |  | 55.8 ± 2.6 | 52.9 ± 2.5 |
| CCCCCCCCCCCC [dodecane] + CCn1cc[n+](C)c1.N#CN=C=[N-] | 1410 ± 68 | 1290 ± 62 | 1180 ± 57 |  |  |
| CCO [ethanol] + CCCCCC[N+](C)(C)C.O=S(=O)([N-]S(=O)(=O)C(F)(F)F)C(F)(F)F | 2.41 ± 0.11 |  |  | 1.28 ± 0.043 | 1.21 ± 0.039 |
| CCO [ethanol] + CCn1cc[n+](C)c1.N#CN=C=[N-] | 0.78 ± 0.03 | 0.74 ± 0.03 | 0.75 ± 0.03 |  |  |
| CCOC(C)=O [ethyl acetate] + CCCCCC[N+](C)(C)C.O=S(=O)([N-]S(=O)(=O)C(F)(F)F)C(F)(F)F | 0.72 ± 0.029 |  |  | 0.748 ± 0.029 | 0.776 ± 0.028 |
| CCc1ccccc1 [ethylbenzene] + CCCCCC[N+](C)(C)C.O=S(=O)([N-]S(=O)(=O)C(F)(F)F)C(F)(F)F | 1.83 ± 0.079 |  |  | 1.91 ± 0.084 | 1.97 ± 0.088 |
| CCc1ccccc1 [ethylbenzene] + CCn1cc[n+](C)c1.N#CN=C=[N-] | 7.43 ± 0.34 | 7.38 ± 0.34 | 7.29 ± 0.33 |  |  |
